From patent publication US7960433B2, “Treatment of chemokine mediated diseases” (Schering Corporation, priority 2002, dated 2011)

Experiments:
[1] = test system: myeloperoxidase (MPO) activity; assay: Carrageenan-induced rat paw edema model: MPO activity in hindpaw inflammatory fluid (neutrophil accumulation); assay type: in vivo, male Sprague-Dawley rats; details: oral, 3 hrs after carrageenan; Compound A 1 mg/kg, indomethacin 0.5 mg/kg, alone or combined
Description: Carrageenan (0.05 ml of an 1% solution in saline) was injected into one hindpaw of male Sprague-Dawley rats. Paw volumes (ml) were measured by a water displacement plethysmometer prior to and 3 h after the injection of carrageenan. The increase in paw volume that occurred between the two timepoints was determined for each group. Rats received Compound A:
(§1) [drawing 179] (see Example 405 of WO 02/083624) or standard drugs in methylcellulose vehicle by the oral route, 1 hr before carrageenan injection. The percentage by which the edematous response was inhibited was calculated by comparing the increase in paw edema of drug-treated rats to that of vehicle-treated controls. To determine neutrophil accumulation in the paws, rats were sacrificed at 3 hrs and myeloperoxidase (MPO) activity was measured from inflammatory fluid expressed from the hindpaw using a colorimetric assay (Bradley et al., 1982). PGE2 production in the hindpaw was assessed by ELISA (R&D Systems, Minneapolis, Minn.).

[2] = test system: carrageenan-induced paw edema; assay: Carrageenan-induced rat paw edema model: paw volume; assay type: in vivo, male Sprague-Dawley rats; details: oral, 1 hr before carrageenan, paw volume at 3 h; suboptimal doses: Compound A 1 mg/kg, indomethacin 0.5 mg/kg, betamethasone 0.05 mg/kg, alone or combined
Description: as §1, with “Carrageenan (0.05 ml of an 1% solution in saline) was injected into one hindpaw of male Sprague-Dawley rats. […] The increase in paw volume that occurred between the two timepoints was determined for each group. Rats received Compound A: [drawing” for “[drawing”

PGE2 [3] = assay: SCW mouse knee model: PGE2 levels in patellar organ culture; assay type: in vivo, female C57BL/6J mice
Description: The method described by Lubberts et al, 1998 was used for these studies, with some modifications. Female 8-12 week old C57BL/6J animals were fasted overnight and dosed orally with Compound A, indomethacin, or a combination of these agents suspended in methylcellulose one hour prior to a single intra-articular injection of 6 μl containing 25 μg of bacterial SCW (4.32 mg/ml rhammose; Lee Laboratories, Grayson, Ga.) in saline into the right knee joint. The left knee joint received an injection of 6 μl of saline at the same time. In other experiments, a neutralizing rat anti-mouse TNFα antibody or matched rat IgG isotype control was administered intraperitoneally two hours prior to SCW injection and Compound A or methylcellulose vehicle was orally administered one hour prior to SCW injection. Knee swelling measurements were performed 2 hours after SCW injection using a dial-gauge caliper ([…], Athol, Mass.) by measuring the difference in swelling between the right and left knee joints. Patellar organ cultures for assessment of synovial cytokine and chemokine and prostaglandin levels were prepared at 2 hours after SCW injection and established as described (Lubberts et al, 1998), using ELISA kits obtained from R&D Systems (Minneapolis, Minn.). […]

PGE2 [4] = assay: Carrageenan-induced rat paw edema model: PGE2 production in the hindpaw (ELISA); assay type: in vivo, male Sprague-Dawley rats; details: oral; Compound A 1 mg/kg, betamethasone 0.05 mg/kg, alone or combined
Description: as §1, with “Carrageenan (0.05 ml of an 1% solution in saline) was injected into one hindpaw of male Sprague-Dawley rats. […] The increase in paw volume that occurred between the two timepoints was determined for each group. Rats received Compound A: [drawing” for “[drawing”

IL-1β = assay: SCW mouse knee model: IL-1β production by ex vivo patellar organ culture; assay type: in vivo, female C57BL/6J mice
Description: (§2) The method described by Lubberts et al, 1998 was used for these studies, with some modifications. Female 8-12 week old C57BL/6J animals were fasted overnight and dosed orally with Compound A, indomethacin, or a combination of these agents suspended in methylcellulose one hour prior to a single intra-articular injection of 6 μl containing 25 μg of bacterial SCW (4.32 mg/ml rhammose; Lee Laboratories, Grayson, Ga.) in saline into the right knee joint. The left knee joint received an injection of 6 μl of saline at the same time. In other experiments, a neutralizing rat anti-mouse TNFα antibody or matched rat IgG isotype control was administered intraperitoneally two hours prior to SCW injection and Compound A or methylcellulose vehicle was orally administered one hour prior to SCW injection. Knee swelling measurements were performed 2 hours after SCW injection using a dial-gauge caliper ([…], Athol, Mass.) by measuring the difference in swelling between the right and left knee joints. Patellar organ cultures for assessment of synovial cytokine and chemokine and prostaglandin levels were prepared at 2 hours after SCW injection and established as described (Lubberts et al, 1998), using ELISA kits obtained from R&D Systems (Minneapolis, Minn.). Statistical analysis was performed using the Student's t-test, with p<0.05 considered to be indicative of statistical significant differences between groups.

[5] = test system: SCW-induced knee swelling; assay: Streptococcal cell wall-induced mouse knee swelling model: knee swelling; assay type: in vivo, female C57BL/6J mice; details: 2 hours after SCW injection
Description: as §2

[6] = indomethacin alone (2 mg/kg oral)

## CC[C@@H](Nc1c(Nc2cccc(C(=O)N(C)C)c2O)c(=O)c1=O)c1ccc(C)o1 [Compound A]
[1]
  inhibition of MPO activity in the hindpaw: 67%
[2]
  inhibition of paw edema: 20%
PGE2 [3]; Compound A alone at 10-25 mg/kg oral
  inhibition of PGE2 levels in patellar organ culture: 34-40%
PGE2 [4]
  inhibition of paw PGE2 levels: 31%
IL-1β; Compound A 10 mg/kg oral, alone or with indomethacin
  inhibition of IL-1β production by ex vivo patellar organ culture: 49%
IL-1β; Compound A 25 mg/kg oral, alone or with indomethacin
  inhibition of IL-1β production by ex vivo patellar organ culture: 64%
[5]; Compound A 10 mg/kg oral, alone or with indomethacin 2 mg/kg
  inhibition of knee swelling: 46%
[5]; Compound A 25 mg/kg oral, alone or with indomethacin 2 mg/kg
  inhibition of knee swelling: 70%

## COc1ccc2c(c1)c(CC(=O)O)c(C)n2C(=O)c1ccc(Cl)cc1 [indomethacin, reference compound]
[1]
  inhibition of MPO activity in the hindpaw: −58%
[2]
  inhibition of paw edema: 0%
PGE2 [3]; [6]
  inhibition of PGE2 levels in patellar organ culture: 89%
IL-1β; [6]
  inhibition of IL-1β production by ex vivo patellar organ culture: 11%
[5]; indomethacin 2 mg/kg oral alone
  inhibition of knee swelling: 42%

## C[C@H]1C[C@H]2[C@@H]3CCC4=CC(=O)C=C[C@]4(C)[C@@]3(F)[C@@H](O)C[C@]2(C)[C@@]1(O)C(=O)CO [betamethasone, reference compound]
[2]
  inhibition of paw edema: 32%
PGE2 [4]
  inhibition of paw PGE2 levels: 31%
